We go through one molecule from US10479792B2, “Compounds” (GlaxoSmithKline Intellectual Property Development Limited, priority 2015, dated 2019).

The solubility is how much of the substance goes into solution per volume. The low end stands for a poorly soluble substance, the high end for a readily soluble substance.

Data set [1] relates to RnH9c2 cells. In words: Trypanosoma cruzi intracellular assay (Assay 2), host cell cytotoxicity. It counts as cell-based. The following applies: rat, H9C2 cardiomyocytes infected with Trypanosoma cruzi, 72 h incubation, read-out: cytotoxicity against RnH9c2 cells, pEC50 (converted). Here is the method: Compounds were dispensed into black 384-well assay plates (Greiner) by acoustic dispensing (LabCyte ECHO). For potency determinations, eleven-point, one in three dilution curves were generated, with a top concentration of 50 μM. H9C2 rat cardiomyocytes cells were dispensed in T225 tissue culture flasks and after 4 hours they were infected during 18 hours with T. cruzi trypomastigotes in the same T225 tissue culture flasks at a multiplicity of infection of 1. Next, any remaining free trypomastigotes were washed away with PBS and the infected H9C2 cells were harvested by trypsinisation. The infected H9C2 cells were then plated into 384-well plates containing the compounds to be tested, at 2500 cells per well in DMEM media with 2% FBS, 1% Penicillin/Streptomicin, 2 mM L-Glutamine, 1 mM Na Pyruvate and 25 mM HEPES. After 72 h incubation at 37° C. in presence of 5% CO2, the plates were fixed and stained with 4% formaldehyde and 2 μM Draq5 for 3 hours at room temperature. The plates were imaged on a Perkin Elmer Opera high-content imaging system using a 20× air objective. Images were analyzed using the Acapella building blocks system (Perkin Elmer). The image analysis algorithm first identified the H9C2 nuclei followed by demarcation of the cytoplasm and identification of intracellular amastigotes. This algorithm reported mean number of parasites per H9C2 cell, the percentage of infected H9C2 cells and the total number of H9C2 cells.

Data set [2] concerns Leishmania donovani. In words: Leishmania donovani intracellular assay (Assay 5). The following applies: THP-1, 96 h, eGFP amastigotes in THP-1 cells, 96 h incubation, read-out: pEC50 value against Leishmania donovani (converted). It counts as cell-based. A digest of the protocol: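 PMA-differentiated (30 nM) THP-1 monocytes were infected with eGFP-expressing L. donovani amastigotes at an MOI of 10, then plated at 3000 cells/well in RPMI with 2% FBS. Cells were exposed for 96 h at 37° C to 11-point 1:3 dilutions from a 50 μM top. After fixation and DAPI staining, high-content imaging gave parasites per cell, % infected cells and total THP-1 count.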

In data set [3] the test system is THP-1 cells. Kind of data set: Leishmania donovani intracellular assay (Assay 5), THP-1 cytotoxicity. The note with it: human, 96 h incubation, read-out: cytotoxicity against THP-1 cells, pEC50 (converted). It counts as cell-based. On the procedure: Assay 5. Leishmania donovani Intracellular Assay
Compounds were dispensed into black 384-well assay plates (Greiner) by acoustic dispensing (LabCyte ECHO). For potency determinations, eleven-point, one in three dilution curves were generated, with a top concentration of 50 μM. THP-1 human monocytes cells were dispensed in T225 tissue culture flasks and differentiated using 30 nM of PMA, after 24 hours they were infected overnight using Leishmania donovani expressing Green Fluorescent Protein (eGFP) amastigotes in the same T225 tissue culture flasks at a multiplicity of infection of 10. Next, any remaining free amastigotes were washed away with PBS and the infected THP-1 cells were harvested by trypsinisation. The infected cells were then plated into 384-well plates containing the compounds to be tested, at 3000 cells per well in RPMI media with 2% FBS and 25 mM Sodium bicarbonate. After 96 h incubation at 37° C. in presence of 5% CO2, the plates were fixed with 4% formaldehyde for 30 minutes, washed with PBS and stained with 0.1 mg/mL of DAPI for 30 minutes and washed again with PBS. The plates were imaged on a Perkin Elmer Opera high-content imaging system using a 20× air objective with two expositions, one for DAPI stain and other for eGFP. Images were analysed using the Acapella building blocks system (Perkin Elmer). The image analysis algorithm first identified the THP-1 nuclei followed by demarcation of the cytoplasm and identification of intracellular amastigotes. This algorithm reported mean number of parasites per THP-1 cell, the percentage of infected THP-1 cells and the total number of THP-1 cells.

Data set [4] can be described thus: Solubility assay, ChemiLuminescent Nitrogen Detection (CLND) (Assay 4). It counts as physicochemical. The following applies: phosphate buffered saline (PBS) pH 7.4, aqueous buffer, kinetic from dmso stock, PBS pH 7.4, from 10 mM DMSO stock, 1 h at room temperature. Here is the method: Assay 4. Solubility Assay—ChemiLuminescent Nitrogen Detection (CLND) I. Compounds A 10 mM DMSO stock solution of the compound was prepared. Solvents and Buffers Organic solvents of HPLC grade were used. Ultra pure water (Milli-Q grade) was used. Buffers were prepared with ultra pure water and filtered using 0.45μ cameo filters. Aqueous Buffer Solution: Phosphate Buffer Saline (PBS) @ pH 7.4 was prepared from Sigma dry powder packs, P-3813. Each one was diluted to 1 liter with deionised water. The pH was checked before the solution was used II. Procedures. • a) DMSO concentration was measured. DMSO blanks and ondansetron and caffeine standards were added to the plate (column 12, A, B, C, & D for the blanks and E, F, G, & H for the standards). Plates were covered with foil. When the UV and CLND detectors baselines appeared to be stable, the CLND was zeroed. • b) Once DMSO concentration measurements were complete, a filtration plate was prepared from each parent plate by diluting 5 μl of the 10 mM DMSO stock solution to […] with pH7.4 PBS. • c) After the plates were prepared, they were covered with a plate lid and left to incubate for 1 h at room temperature. • d) Sample was filtered using MILLIPORE MultiScreen Solubility (MSSLBPC10) Filtration Plates, to NUNC V well plates. […]

For the molecule `COc1cccc(-c2cnc3nc(-c4cc(NC(=O)N5CCCC5)ccc4F)ccn23)n1.Cl` [Example 28, N-(4-fluoro-3-(3-(6-methoxypyridin-2-yl)imidazo[1,2-a]pyrimidin-7-yl)phenyl)pyrrolidine-1-carboxamide], in data set [1], the EC50 at 72 h is 7.94 µM. The EC50 in data set [2] is 0.126 to 10 µM. The EC50 at 96 h in data set [3] was 12.6 to 50.1 µM. The molecule also gave a solubility at 1 h in data set [4] of under 1 µM.
